Consider 8 molecules from US20180177845A1, “METHOD FOR TREATMENT OR PREVENTION OF A CANCER” (priority 2016, published 2018).

Where no end group is shown, it is not given here.

Experiment [1] concerns HCT-116 cells. The experiment is described as follows: anchorage-independent growth assay, HCT-116. It is filed as cell-based, human. How it is done:
An anchorage-independent growth assay was conducted with several modifications. Briefly, 5×10^4 cells were seeded in a 0.3% agar in DMEM containing 10% FBS over the bottom 0.6% agar layer in DIVIEM. After incubation for 14 days, the number and size of colonies were scored.

Experiment [2] has as its system β4 integrin/FAK complex. The experiment can be described thus: immunoprecipitation of β4 integrin and FAK in HCT-116 cells. It is filed as cell-based, human. How it is done:
(§1) Cells or tissue samples were homogenized and extracted for Western blotting. For immunoprecipitation, proteins were incubated with antibodies as indicated at 4° C. overnight, followed by incubation for 4 hrs with protein A-Sepharose 4B beads (Sigma-Aldrich). All experiments were conducted at least three independent times.

The next experiment concerns β4 integrin at Tyr1526. The experiment can be described thus: Western blot of β4 integrin tyrosine phosphorylation in MDA-MB-231 cells. It counts as cell-based, human. The settings on record: 10 μM. How it is done:
(§2) Various plasmid-transfected or pharmacologically treated cells or tissue samples were homogenized and extracted for Western blot analyses. About 10-20 μg whole cell lysate were used for Western blotting. A 1 mg/ml concentration of total protein from cell lysates was employed for immunoprecipitation. Some extracts subjected to immunoprecipitation were incubated with antibodies, as indicated, for 4 h at 4° C., followed by incubation for 4 h or overnight with protein A-Sepharose 4B or protein G-Sepharose beads (Sigma-Aldrich) before proceeding to Western blot analysis. Each experiment was repeated at least three independent times.
A general note: A western blot detects proteins with antibodies after separation by electrophoresis.

The next experiment relates to FAK phospho-Tyr397. The experiment can be described thus: Western blot of FAK phospho-Tyr397 in MDA-MB-231 cells. It is filed as cell-based, human. How it is done:
as §2

Experiment [3] has as its system FAK autophosphorylation at Tyr397. The experiment is described as follows: Western blot of FAK autophosphorylation at Tyr397 in HCT-116 cells. It is filed as cell-based, human. How it is done: as §1
Experiment [4] concerns β4 integrin/FAK complex. The experiment is described as follows: co-immunoprecipitation of β4 integrin and FAK in MDA-MB-231 cells. It counts as cell-based, human. How it is done: as §2
The subject of experiment [5] is MDA-MB-231 cells. The experiment is described as follows: in vivo lung metastasis after tail vein injection, bioluminescence. The settings on record: MDA-MB-231 transfectants, 84 days after injection, vs mock and triple mutant. Set-up: species or system nude mice. How it is done: (§3) All mouse experiments were approved by the Institutional Animal Care and Use Committee, National Taiwan University (Taipei, Taiwan). All experimental procedures were performed in accordance with the protocols and the ethical regulations approved by the Institutional Animal Care and Use Committees of National Taiwan University (Taipei, Taiwan). Female nu/nu mice were purchased from the National Laboratory Animal Center (Taipei, Taiwan). For tumorigenesis, 1×10^6 MDA-MB-231 stably transfected pools expressing GFP-tagged FAK/25aa, its triple (FAK/25aa^E380A/K381A/Q382A)or double (FAK/25aa^R385A/S386A) mutant, or a mock transfected control that had been selected by 500 μg/ml G418 for 2 weeks were injected into the 3rd mammary fat pad of eight-week-old female nu/nu mice. Stably transfected pools of each construct were injected in 100 μl PBS. Tumor volumes and numbers were measured at 12 weeks after injection and then excised, photographed, and weighted. For tumor metastasis, 1×10^6 MDA-MB-231 cells, described above, that were labeled with luciferase by lentiviral infection were resuspended in 100 μl PBS and injected into the tail vein of six-week-old female nu/nu mice. Lung metastasis was monitored by bioluminescent imaging using an IVIS spectrum imaging system. Lung metastasis was measured on the respective day after injection.

In experiment [6] the test system is MDA-MB-231 cells. The experiment is described as follows: in vivo tumorigenesis, orthotopic injection into mammary fat pad. The settings on record: stably expressing MDA-MB-231 cells in mammary fat pad of nude mice; 12 weeks. How it is done:
as §3

The next experiment has as its system NIH3T3. The experiment is described as follows: specificity: β1 integrin-mediated cell migration in NIH3T3. It counts as cell-based, mouse. The conditions noted are these: overexpressed in NIH3T3.
The test system of experiment [7] is HCT-116 cells. The experiment is described as follows: in vivo tumorigenicity, subcutaneous xenograft mouse model. The settings on record: ectopic expression in HCT-116 cells, subcutaneous in SCID mice; 21 days. How it is done: Here. FAK and FRNK transfectants were used as controls. […] All results are presented as the means ±s.d. from at least three independent experiments (*. p<0.05, compared with the corresponding mock control). […] An in vivo tumorigenicity assay was conducted using a xenograft mouse model by subcutaneously injecting cells described above into SCID mice. Mice were sacrificed 21 days after tumor injection. Tumor mass (left, top), protein expression (left, bottom), and tumor weight (right) of the xenografts were measured. Five mice were assessed for each group (Scale bar, 1 cm. *, p<0.05, compared with the corresponding mock control).

For experiment [8], the system named is MDA-MB-231 cells. The experiment is described as follows: BrdU incorporation cell proliferation assay, MDA-MB-231. The conditions noted are these: MDA-MB-231 transfectants; compared to mock and triple-mutant cells. It counts as cell-based, human. How it is done: At 24 h after transfection, 2×10^4 cells were serum starved for 24 h. Cells were then washed twice with DMEM and incubated for 16 h in DMEM plus 10% FBS and 100 μM BrdU (Sigma-Aldrich). After that, cells were fixed, permeabilized, heated with DNase I, and processed for immunofluorescence staining, with anti-BrdU (1:200, Sigma-Aldrich) antibody, as described previously^39, with a few modifications. Cells were then counted in multiple fields and scored for BrdU-positive staining in each independent experiment.
(In general: Incorporation of labelled thymidine or its analogues reports DNA synthesis.)

Experiment [9] deals with HCT-116 cells. The experiment is described as follows: BrdU incorporation assay, HCT-116. The settings on record: HCT-116 cells overexpressing the peptide. It counts as cell-based, human. How it is done: A BrdU incorporation assay was performed. Briefly, serum-starved cells were incubated in DMEM with 10% FBS and 100 μM BrdU (Sigma-Aldrich) for 16 hrs. Cells were fixed, permeabilized, treated with DNase I, and processed for immunofluorescence staining with anti-BrdU (Sigma-Aldrich) antibody. The BrdU-positive staining cells were scored.

In the next experiment the test system is paxillin/FAK complex. The experiment can be described thus: specificity: paxillin/FAK complex in NIH3T3. It is filed as cell-based, mouse. The conditions noted are these: overexpressed in NIH3T3.
Sequence of paxillin/FAK complex (Q8VI36 whole entry): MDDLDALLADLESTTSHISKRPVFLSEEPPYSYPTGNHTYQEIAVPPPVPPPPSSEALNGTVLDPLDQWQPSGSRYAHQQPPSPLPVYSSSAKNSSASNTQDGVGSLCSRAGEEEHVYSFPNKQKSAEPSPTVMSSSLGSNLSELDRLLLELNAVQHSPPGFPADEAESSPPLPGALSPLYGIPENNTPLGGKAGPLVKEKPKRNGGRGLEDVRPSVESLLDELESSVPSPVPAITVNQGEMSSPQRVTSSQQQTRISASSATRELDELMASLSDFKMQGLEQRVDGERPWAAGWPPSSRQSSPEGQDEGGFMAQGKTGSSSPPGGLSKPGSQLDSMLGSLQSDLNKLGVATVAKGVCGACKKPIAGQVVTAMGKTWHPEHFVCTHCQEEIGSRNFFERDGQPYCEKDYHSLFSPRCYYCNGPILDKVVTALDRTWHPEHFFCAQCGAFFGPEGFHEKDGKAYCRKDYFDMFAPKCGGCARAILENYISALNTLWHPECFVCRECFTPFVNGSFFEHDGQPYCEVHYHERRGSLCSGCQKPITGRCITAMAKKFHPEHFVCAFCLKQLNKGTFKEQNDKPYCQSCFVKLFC
Sequence of paxillin/FAK complex (P34152 whole entry, further chain): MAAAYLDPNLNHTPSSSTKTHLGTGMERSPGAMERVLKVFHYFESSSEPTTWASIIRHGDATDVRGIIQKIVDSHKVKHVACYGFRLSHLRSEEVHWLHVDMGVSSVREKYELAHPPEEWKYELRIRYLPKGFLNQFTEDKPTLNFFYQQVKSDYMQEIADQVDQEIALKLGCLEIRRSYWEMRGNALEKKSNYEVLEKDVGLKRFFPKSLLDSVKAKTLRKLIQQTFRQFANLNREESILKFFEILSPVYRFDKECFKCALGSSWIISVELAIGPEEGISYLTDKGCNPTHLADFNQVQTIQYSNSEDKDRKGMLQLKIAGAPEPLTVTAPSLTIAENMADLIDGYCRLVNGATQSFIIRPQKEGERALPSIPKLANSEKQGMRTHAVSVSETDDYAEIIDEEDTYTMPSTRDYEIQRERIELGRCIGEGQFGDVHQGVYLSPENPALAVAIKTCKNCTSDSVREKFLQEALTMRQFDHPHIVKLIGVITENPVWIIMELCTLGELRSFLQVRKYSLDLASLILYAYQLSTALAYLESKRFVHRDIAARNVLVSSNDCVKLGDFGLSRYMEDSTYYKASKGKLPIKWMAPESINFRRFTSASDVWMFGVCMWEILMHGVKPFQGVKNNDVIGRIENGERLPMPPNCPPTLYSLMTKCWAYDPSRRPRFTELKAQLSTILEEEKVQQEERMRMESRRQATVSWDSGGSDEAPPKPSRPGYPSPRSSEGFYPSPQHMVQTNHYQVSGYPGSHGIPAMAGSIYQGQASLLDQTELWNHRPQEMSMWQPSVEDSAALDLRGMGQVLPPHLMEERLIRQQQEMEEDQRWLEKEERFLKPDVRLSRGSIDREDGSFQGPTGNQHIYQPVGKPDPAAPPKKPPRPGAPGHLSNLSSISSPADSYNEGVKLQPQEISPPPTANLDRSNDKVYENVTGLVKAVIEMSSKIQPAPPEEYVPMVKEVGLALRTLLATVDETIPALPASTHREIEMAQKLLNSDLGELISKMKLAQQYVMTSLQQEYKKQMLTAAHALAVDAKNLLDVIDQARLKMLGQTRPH
Experiment [10] relates to MDA-MB-231 cells. The experiment can be described thus: anchorage-independent growth in soft agar assay, MDA-MB-231. It counts as cell-based, human. The conditions noted are these: in comparison with the TAT alone, peptide 10 μM or 50 μM. How it is done:
Experiments were performed as previously described'^9, with the following modifications. A total of 5×10^4 cells were seeded in 0.3% agar in DMEM plus 10% […] and EGF (10 ng/ml) over the bottom 0.6% agar layer in DMEM. After incubation for 14 days, the number of colonies was scored.

Experiment [11] has as its target T1, focal adhesion kinase (FAK) (human, UniProt Q05397 2-1052).
T1 construct: Endogenous FAK in lysates of human cells and tissues; also called full-length FAK; FAX [sic]
The experiment is described as follows: HA-tagged β4 fragments in HEK-293 cells (FIG. 9F).

Experiment [12] concerns the target T2, β4 integrin (human, UniProt P16144 28-1822, limits assumed).
T2 construct: Endogenous full-length β4 integrin in lysates or immunoprecipitates; In cells it is paired with α6 integrin; also called integrin β4; ITGB4
The experiment is described as follows: Ni-bead pull-down from MDA-MB-231 lysate, anti-β4 integrin Western blot (FIG. 1(g)).

Experiment [13] addresses T2, β4 integrin. The experiment can be described thus: GST pull-down from HCT-116 lysate, anti-β4 integrin Western blot (FIG. 9(C)).
In experiment [14] the target is T2, β4 integrin. The experiment is described as follows: overexpression in HCT-116 cells.

T2 sequence (P16144 28-1822 limits assumed): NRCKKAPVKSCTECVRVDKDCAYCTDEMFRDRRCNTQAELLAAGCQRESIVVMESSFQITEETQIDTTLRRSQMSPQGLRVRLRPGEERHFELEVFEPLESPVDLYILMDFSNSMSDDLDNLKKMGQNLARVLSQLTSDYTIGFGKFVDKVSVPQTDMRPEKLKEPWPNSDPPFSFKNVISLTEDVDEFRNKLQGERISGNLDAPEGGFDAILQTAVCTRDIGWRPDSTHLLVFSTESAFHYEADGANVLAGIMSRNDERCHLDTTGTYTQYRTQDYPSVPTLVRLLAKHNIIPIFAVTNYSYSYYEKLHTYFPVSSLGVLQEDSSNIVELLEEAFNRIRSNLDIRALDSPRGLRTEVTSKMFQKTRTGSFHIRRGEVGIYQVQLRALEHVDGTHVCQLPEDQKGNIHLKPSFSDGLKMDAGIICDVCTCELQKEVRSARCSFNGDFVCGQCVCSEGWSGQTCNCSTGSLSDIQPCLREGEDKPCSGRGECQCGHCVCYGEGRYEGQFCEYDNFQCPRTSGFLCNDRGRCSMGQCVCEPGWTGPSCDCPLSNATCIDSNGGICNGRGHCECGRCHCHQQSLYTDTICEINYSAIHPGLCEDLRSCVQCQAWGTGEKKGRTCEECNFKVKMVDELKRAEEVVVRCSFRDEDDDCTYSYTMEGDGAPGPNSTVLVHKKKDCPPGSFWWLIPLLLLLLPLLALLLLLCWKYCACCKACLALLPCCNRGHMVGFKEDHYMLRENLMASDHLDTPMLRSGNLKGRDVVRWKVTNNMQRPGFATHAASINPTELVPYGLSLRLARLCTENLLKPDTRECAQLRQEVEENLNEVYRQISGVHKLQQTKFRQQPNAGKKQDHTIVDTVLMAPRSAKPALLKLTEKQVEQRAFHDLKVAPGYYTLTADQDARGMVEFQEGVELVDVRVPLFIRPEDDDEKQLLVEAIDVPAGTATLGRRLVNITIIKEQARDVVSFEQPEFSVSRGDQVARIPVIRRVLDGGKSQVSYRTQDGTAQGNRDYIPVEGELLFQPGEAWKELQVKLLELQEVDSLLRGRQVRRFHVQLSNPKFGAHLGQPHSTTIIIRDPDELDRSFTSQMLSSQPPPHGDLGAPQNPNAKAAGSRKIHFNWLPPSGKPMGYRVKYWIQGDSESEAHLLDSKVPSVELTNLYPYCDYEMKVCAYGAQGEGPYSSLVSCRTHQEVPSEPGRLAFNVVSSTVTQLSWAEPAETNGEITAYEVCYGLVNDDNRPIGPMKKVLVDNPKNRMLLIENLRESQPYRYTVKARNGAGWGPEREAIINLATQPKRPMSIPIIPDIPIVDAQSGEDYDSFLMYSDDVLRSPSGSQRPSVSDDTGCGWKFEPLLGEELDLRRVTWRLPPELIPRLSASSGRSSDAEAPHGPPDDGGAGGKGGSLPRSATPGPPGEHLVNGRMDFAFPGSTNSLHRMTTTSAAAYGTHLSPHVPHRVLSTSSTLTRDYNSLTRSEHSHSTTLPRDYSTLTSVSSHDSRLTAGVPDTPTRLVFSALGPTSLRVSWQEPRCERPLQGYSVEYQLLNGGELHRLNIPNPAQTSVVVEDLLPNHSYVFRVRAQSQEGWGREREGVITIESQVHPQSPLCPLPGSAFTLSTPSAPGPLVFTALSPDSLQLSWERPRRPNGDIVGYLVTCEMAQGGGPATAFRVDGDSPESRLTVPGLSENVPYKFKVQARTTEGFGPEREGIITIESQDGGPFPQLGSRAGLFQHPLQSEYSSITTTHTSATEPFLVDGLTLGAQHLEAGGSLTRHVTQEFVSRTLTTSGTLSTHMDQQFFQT
T1 sequence (Q05397 2-1052 limits assumed): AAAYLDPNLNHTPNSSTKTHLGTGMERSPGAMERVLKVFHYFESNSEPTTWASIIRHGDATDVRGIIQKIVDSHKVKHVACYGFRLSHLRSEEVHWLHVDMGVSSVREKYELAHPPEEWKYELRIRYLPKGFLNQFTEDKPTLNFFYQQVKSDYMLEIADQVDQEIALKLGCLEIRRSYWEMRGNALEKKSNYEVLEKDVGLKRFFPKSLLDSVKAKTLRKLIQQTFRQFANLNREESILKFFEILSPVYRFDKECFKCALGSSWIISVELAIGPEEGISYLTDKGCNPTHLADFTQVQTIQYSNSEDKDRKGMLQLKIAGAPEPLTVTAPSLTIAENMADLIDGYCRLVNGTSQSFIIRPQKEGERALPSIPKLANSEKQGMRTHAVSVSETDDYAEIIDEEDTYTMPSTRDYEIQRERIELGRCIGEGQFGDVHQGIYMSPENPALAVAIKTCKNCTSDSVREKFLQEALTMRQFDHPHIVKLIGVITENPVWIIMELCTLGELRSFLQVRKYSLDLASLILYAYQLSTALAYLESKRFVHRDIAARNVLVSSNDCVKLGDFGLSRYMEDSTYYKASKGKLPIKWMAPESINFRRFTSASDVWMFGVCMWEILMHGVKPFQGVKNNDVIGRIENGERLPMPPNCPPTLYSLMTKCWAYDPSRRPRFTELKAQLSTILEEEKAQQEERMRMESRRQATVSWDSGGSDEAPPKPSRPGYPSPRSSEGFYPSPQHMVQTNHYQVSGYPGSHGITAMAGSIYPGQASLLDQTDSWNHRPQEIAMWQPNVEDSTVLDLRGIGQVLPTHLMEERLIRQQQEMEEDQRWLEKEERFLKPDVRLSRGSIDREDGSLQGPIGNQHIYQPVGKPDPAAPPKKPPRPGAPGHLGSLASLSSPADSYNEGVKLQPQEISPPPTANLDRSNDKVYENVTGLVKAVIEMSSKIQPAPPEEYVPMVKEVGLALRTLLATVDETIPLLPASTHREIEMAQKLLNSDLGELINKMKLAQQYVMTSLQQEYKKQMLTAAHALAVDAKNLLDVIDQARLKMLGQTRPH

As to `CS(=O)(=O)c1cccc(CNc2nc(Nc3ccc4c(c3)CCC(=O)N4)ncc2C(F)(F)F)c1` [PF-573,228, reference compound], in the experiment with HCT-116 cells [1] (HCT-116 cells treated with FAK inhibitor, DMSO control), the “anchorage-independent growth (soft agar)” value is “impairs”. For the same molecule, in the experiment on β4 integrin/FAK complex [2] (FAK activity inhibited, 10 μM), the “β4 integrin/FAK complex formation” value was “still formed”.

In the case of `CC(C)(C)n1nc(-c2ccc(Cl)cc2)c2c(N)ncnc21` [PP2], the “phosphorylation level of β4 integrin at Tyr1526” value in the experiment on β4 integrin at Tyr1526 is reported as “reduced”. Further, in the experiment on FAK phospho-Tyr397 (MDA-MB-231 cells, 10 μM), the “phosphorylation level of FAK at Tyr397” value is recorded as “reduced”. Besides, the “β4 integrin and FAK association in response to EGF stimulation” value in the experiment on β4 integrin/FAK complex [2] (EGF stimulation) was “ablated”. Also, the “β4 integrin/FAK complex formation” value with β4 integrin/FAK complex [2] (blockade of Src activity) is “decrease”. The “FAK activation in response to EGF stimulation” value in [3] (HCT-116 cells, EGF stimulation) is reported as “ablated”. In experiment [3] (HCT-116 cells, blockade of Src activity), the FAK activation result was “alleviate”. Further, the “formation of the β4 integrin/FAK complex” value with β4 integrin/FAK complex [4] (MDA-MB-231 cells, 10 μM, compared to PP3- or DMSO-treated cells) is reported as “markedly reduced”. Besides, in the experiment with β4 integrin/FAK complex [4] (serum-starved MDA-MB-231 cells, EGF 10 ng/ml, inhibitor 10 μM), the “interaction between β4 integrin and FAK under EGF stimulation” value was “remained absent”.

For “FAK/25aa: the 376th to 400th amino acids of FAK, SEQ ID NO: 3; overexpressed GFP-tagged in cells (LANNEKQGVRSHTVSVSETDDYAEI; also: GFP tag)”, the anchorage-independent growth entry in the experiment on HCT-116 cells [1] (HCT-116 transfectants, compared with mock and triple-mutant cells) is reported as “considerably decreased”. Moreover, in the experiment on FAK phospho-Tyr397 (transfected MDA-MB-231 cells, in comparison to mock or triple-mutant transfectants), the “FAK phospho-Tyr397” value is “decreased”. The lung metastatic nodules result in the experiment with MDA-MB-231 cells [5] is “less-developed”. For the same molecule, the “size and weight of tumors” value with MDA-MB-231 cells [6] was “significant reductions”. Besides, the “β1 integrin-mediated cell migration” value with NIH3T3 is “not affected”. Further, the “interaction between β4 integrin and FAK” value with β4 integrin/FAK complex [2] (overexpressed motif) is listed as “ablated”. Moreover, the “volume and weight of implanted colon cancer tumors” value in the experiment with HCT-116 cells [7] is “significantly reduced”. The cell proliferation entry in the experiment with MDA-MB-231 cells [8] is given as “decreased”; in the experiment on HCT-116 cells [9], “impaired”. For the same molecule, in experiment [3] (transfected HCT-116 cells), the “Tyr397-autophosphorylation of FAK” value is “diminished”. In the experiment with paxillin/FAK complex, the paxillin/FAK complex result was “not affected”. Further, in the experiment on β4 integrin/FAK complex [4] (MDA-MB-231 cells, increased expression of the peptide), the “level of FAK co-immunoprecipitated by β4 integrin” value was “attenuated in a dose-dependent manner”.

Consider “TAT-FAK/25aa: synthesized peptide, FAK/25aa fused with the TAT peptide; sequence GRKKRRQRRRPQLANNEKQGVRSHTVSVSETDDYAE1 (GRKKRRQRRRPQLANNEKQGVRSHTVSVSETDDYAEI)”, for which the “foci less formed in soft agar” value with MDA-MB-231 cells [10] is “approximately 30%”. The “formation of the β4 integrin/FAK complex” value in the experiment with β4 integrin/FAK complex [4] (MDA-MB-231 cells, extracellular administration of peptide (10 μM)) is listed as “capable of alleviating”.

B1: β4-CalX (other, UniProt P16144 979-1084, looked up)
chain: VNITIIKEQARDVVSFEQPEFSVSRGDQVARIPVIRRVLDGGKSQVSYRTQDGTAQGNRDYIPVEGELLFQPGEAWKELQVKLLELQEVDSLLRGRQVRRFHVQLS
notes: domain: Na+/Ca2+ exchanger homologous motif (CalX); also called β4 Na+/Ca2+ exchanger homologous motif; HA-tagged β4-CalX; not shown: HA tag of the pKH3 vector
As to B1, the binding result in experiment [11] is given as “no binding”.

B2: His-tagged FAK/N375 (other)
chain: MAAAYLDPNLNHTPSSSAKTHLGTGMERSPGAMERVLKVFHYFENSSEPTTWASIIRHGDATDVRGIIQKIVDCHKVKNVACYGLRLSHLQSEEVHWLHLDMGVSNVREKFELAHPPEEWKYELRIRYLPKGFLNQFTEDKPTLNFFYQQVKNDYMLEIADQVDQEIALKLGCLEIRRSYGEMRGNALEKKSNYEVLEKDVGLRRFFPKSLLDSVKAKTLRKLIQQTFRQFANLNREESILKFFEILSPVYRFDKECFKCALGSSWIISVELAIGPEEGISYLTDKGANPTHLADFNQVQTIQYSNSEDKDRKGMLQLKIAGAPEPLTVTAPSLTIAENMADLIDGYCRLVNGATQSFIIRPQKEGERALPSIPK
notes: Recombinant protein from E. coli; not shown: His tag
For B2, the binding result with β4 integrin [12] is on record as “no binding”.

B3: GST-FAK/N375 (other)
chain: B2 chain
notes: Recombinant protein from E. coli; not shown: GST of the pGEX-2T vector
With B3, in the experiment with β4 integrin [13], the binding result was “no binding”.

B4: GFP-tagged FAK/25aa^R385A/S386A (peptide)
chain: LANNEKQGVAAHTVSVSETDDYAEI
modifications: also: GFP tag
notes: Positions are printed in full-length FAK numbering; also called double mutant of FAK/25aa; not shown: GFP of the pEGFP vector
B4: the binding result in the experiment with β4 integrin [14] is reported as “binds”.
